Active and inactive are the calls of the source. The rule behind the calls is not given here.
What was measured:
[1] = Permeability of the compound across apical to basolateral side in human Caco-2 cells at pH 6.5; format: ADME, cell-based; conditions: Caco-2, pH 6.5, read-out: permeability
[2] = Permeability of the compound across apical to basolateral side in human Caco-2 cells at pH 7.4; format: ADME, cell-based; conditions: Caco-2, pH 7.4, read-out: permeability
[3] = target: T1, cAMP and cAMP-inhibited cGMP 3',5'-cyclic phosphodiesterase 10A (Homo sapiens, UniProt Q9Y233); assay: Inhibition of PDE10A (unknown origin) preincubated for 20 mins followed by substrate addition and measured after 1 hr by PEDlight AMP detection reagent based luminescence assay
[4] = target: T2, 5-hydroxytryptamine receptor 1A (Homo sapiens, UniProt P08908); assay: Displacement of [3H]-[…] from human 5-HT1A receptor expressed in CHO-K1 cells membrane by scintillation counter analysis; format: cell membranes
T2 sequence (P08908 whole entry): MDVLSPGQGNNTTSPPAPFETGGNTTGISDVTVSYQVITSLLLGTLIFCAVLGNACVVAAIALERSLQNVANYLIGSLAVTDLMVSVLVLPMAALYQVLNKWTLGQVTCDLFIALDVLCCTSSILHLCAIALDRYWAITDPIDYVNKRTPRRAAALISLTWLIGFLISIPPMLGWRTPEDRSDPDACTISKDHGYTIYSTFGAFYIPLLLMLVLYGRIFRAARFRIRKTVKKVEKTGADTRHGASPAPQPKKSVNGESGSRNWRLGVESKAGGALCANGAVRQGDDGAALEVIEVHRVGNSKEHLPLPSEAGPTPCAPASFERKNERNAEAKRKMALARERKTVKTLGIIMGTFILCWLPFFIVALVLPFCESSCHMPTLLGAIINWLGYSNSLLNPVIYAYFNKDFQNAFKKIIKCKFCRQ

[5] = target: 5-hydroxytryptamine receptor 7 (Homo sapiens, UniProt P34969); assay: Displacement of [3H]-5-CT from human 5-HT7 receptor expressed in CHO-K1 cells membrane by scintillation counter analysis; format: cell membranes
[6] = target: T1, cAMP and cAMP-inhibited cGMP 3',5'-cyclic phosphodiesterase 10A; assay: Inhibition of PDE10A (unknown origin) at 10 uM preincubated for 20 mins followed by substrate addition and measured after 1 hr by PEDlight AMP detection reagent based luminescence assay relative to control; conditions: time 80.0 min
Mus musculus [7] = assay: Antidepressant activity in Swiss albino mouse assessed as reduction in immobility time at 5 mg/kg, ip measured for last 4 mins of 6 mins test by forced swim test; format: functional, organism-based
Mus musculus [8] = assay: Anxiolytic-like activity in Swiss albino mouse at 2.5 mg/kg, ip by four plate test; format: functional, organism-based
Rattus norvegicus [9] = assay: Pro-cognitive activity in MK-801-induced memory impaired Wistar rat assessed as recognition of novel location by measuring discrimination index at 1 mg/kg, ip preincubated for 30 mins followed by MK-801 addition for 30 mins prior to T1 phase by novel object location test; format: functional, organism-based; conditions: time 60.0 min
Mus musculus [10] = assay: Antidepressant activity in Swiss albino mouse assessed as reduction in immobility time at 2.5 mg/kg, ip measured for last 4 mins of 6 mins test by forced swim test; format: functional; design: scale not given: the % may be the effect or the level left; conditions: 0.1 h
Mus musculus [11] = assay: Anxiolytic-like activity in Swiss albino mouse at 1.25 to 2.5 mg/kg, ip by four plate test; format: functional, organism-based; conditions: dose 1.25-2.5 mg/kg
Rattus norvegicus [12] = assay: Pro-cognitive activity in MK-801-induced memory impaired Wistar rat assessed as recognition of novel location by measuring discrimination index at 0.3 to 3 mg/kg, ip preincubated for 30 mins followed by MK-801 addition for 30 mins prior to T1 phase by novel object location test; format: functional, organism-based; conditions: dose 0.3-3 mg/kg, time 60.0 min

Row | Ki [4] [nM] | Ki [5] [nM] | inhibition [6] [%] | SMILES | also measured
1 |  |  |  | CNC(=C[N+](=O)[O-])NCCSCc1ccc(CN(C)C)o1 [RANITIDINE] | Papp A→B [1]: 0.3 ×10⁻⁶ cm/s; Papp A→B [2]: 0.9 ×10⁻⁶ cm/s
2 | 32.4 | 251 | 3 | COc1cc2ncnc(N3CCC(CN4CCN(c5ccccc5)CC4)C3)c2cc1OC (centres undefined) | Activity (Mus musculus [7]): Active; Activity (Mus musculus [8]): Active; Activity (Rattus norvegicus [9]): Active
3 | 245 | 417 | 17 | O=c1[nH]c2cccc(N3CCN(Cc4ccc5ccccc5n4)CC3)c2[nH]1 | 
4 | 245 | 355 | 2 | COc1cc2ncnc(N3CCC(CN4CCN(c5ccc(Cl)c(Cl)c5)CC4)C3)c2cc1OC (centres undefined) | 
5 |  |  |  | COc1cc2ncnc(N3CC[C@@H](Oc4cnc5ccccc5n4)C3)c2cc1OC | Activity (Mus musculus [10]): 30%; Activity (Mus musculus [11]): Active; Activity (Rattus norvegicus [12]): Active
6 |  | 1.12 |  | CSc1ccc2c(c1)CC(N1CCN(C)CC1)c1ccccc1S2 (centres undefined) | 
7 | 20.9 | 229 | 3 | COc1cc2ncnc(N3CCC(CN4CCN(c5cccc(C(F)(F)F)c5)CC4)C3)c2cc1OC (centres undefined) | Activity (Mus musculus [8]): Active
8 | 8.13 | 282 | 11 | COc1cc2ncnc(N3CCC(CN4CCN(c5ccccn5)CC4)C3)c2cc1OC (centres undefined) | 
9 | 251 | > 1000 | 11 | COc1cc2ncnc(N3CCC(CN4CCN(c5ncccn5)CC4)C3)c2cc1OC (centres undefined) | 
10 |  | 661 |  | COc1cc2ncnc(N3CCC(CN4CCN(c5ccccc5O)CC4)C3)c2cc1OC (centres undefined) | IC50 [3]: 6030 nM

Row | SMILES | Ki [4] [nM] | Ki [5] [nM] | inhibition [6] [%] | also measured
11 | COc1cc2ncnc(N3CCN(Cc4cnc5ccccc5n4)CC3)c2cc1OC | > 1000 | > 1000 | 29 | IC50 [3]: 170000 nM
12 | c1cc(N2CCN(Cc3nc4ccccc4[nH]3)CC2)c2[nH]ncc2c1 | > 1000 | > 1000 |  | 
13 | COc1cc2ncnc(N3CCN(Cc4nc5ccccc5[nH]4)CC3)c2cc1OC | > 1000 | > 1000 | 3 | 
